Results as given in patent US7767659B2, “Synthesis of naturally occurring ecteinascidins and related compounds” (Pharma Mar, S.A., priority 2002, dated 2010).
Like-named read-outs stand apart in the source and are kept apart here.

Legend:
A-549 = test: cells; details: Homo sapiens, A549, 48 h
In short: (§1)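 Colorimetric SRB read (490 nm) on triplicate wells after 48 h at 37 °C, 5% CO2. Dose range 10 to 10^−8 μg/ml; 5×10^3 cells/well pre-attached 18 h.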

HT-29 = test: cells; details: Homo sapiens, HT-29, 48 h
In short: as §1

LoVo = test: cells; details: Homo sapiens, LoVo, 48 h
In short: as §1

DU-145 = test: Inhibition of cells growth by colorimetric assay (SRB); details: Homo sapiens, DU-145, 48 h
In short: as §1

HeLa-APL = test: as above; details: Homo sapiens, 48 h
In short: as §1

HeLa = test: as above; details: Homo sapiens, HeLa, 48 h
In short: as §1

IGROV-1 = test: as above; details: Homo sapiens, IGROV-1, 48 h
In short: as §1

IGROV-ET = test: as above; details: Homo sapiens, 48 h
In short: as §1

K-562 = test: as above; details: Homo sapiens, K562, 48 h
In short: as §1

LNCaP = test: as above; details: Homo sapiens, LNCaP, 48 h
In short: as §1

LoVo-Dox = test: as above; details: Homo sapiens, 48 h
In short: as §1

PANC-1 = test: as above; details: Homo sapiens, PANC-1, 48 h
In short: as §1

SK-BR-3 = test: as above; details: Homo sapiens, SK-BR-3, 48 h
In short: as §1

SK-MEL-28 = test: as above; details: Homo sapiens, SK-MEL-28, 48 h
In short: as §1

Compound: C=CCN1[C@@H]2c3c(cc(C)c(OC)c3O)C[C@H]1[C@H](O)N1C2[C@@H]2SC[C@]3(NCCc4cc(O)c(OC)cc43)C(=O)OC[C@H]1c1c3c(c(C)c(OC(C)=O)c12)OCO3 (stereo partly drawn) [compound 67]
- GI50 (A-549; read-out: A549 GI50): 32.7 nM
- CC50 (A-549; read-out: A549 LC50): 797 nM
- IC (TGI) (A-549; read-out: A549 TGI): 68.7 nM
- GI50 (HT-29; read-out: HT29 GI50): 37.9 nM
- CC50 (HT-29; read-out: HT29 LC50): 11900 nM
- IC (TGI) (HT-29; read-out: HT29 TGI): 102 nM
- GI50 (LoVo; read-out: LOVO GI50): 28.6 nM
- CC50 (LoVo; read-out: LOVO LC50): 10600 nM
- IC (TGI) (LoVo; read-out: LOVO TGI): 73 nM
- GI50 (DU-145; read-out: DU145 GI50): 35.9 nM
- CC50 (DU-145; read-out: DU145 LC50): 3500 nM
- IC (TGI) (DU-145; read-out: DU145 TGI): 75.4 nM
- GI50 (HeLa-APL; read-out: HELA-APL GI50): 29.7 nM
- CC50 (HeLa-APL; read-out: HELA-APL LC50): 327 nM
- IC (TGI) (HeLa-APL; read-out: HELA-APL TGI): 64.7 nM
- GI50 (HeLa; read-out: HELA GI50): 30.2 nM
- CC50 (HeLa; read-out: HELA LC50): 395 nM
- IC (TGI) (HeLa; read-out: HELA TGI): 67.4 nM
- GI50 (IGROV-1; read-out: IGROV GI50): 31.2 nM
- CC50 (IGROV-1; read-out: IGROV LC50): 685 nM
- IC (TGI) (IGROV-1; read-out: IGROV TGI): 78.6 nM
- GI50 (IGROV-ET; read-out: IGROV-ET GI50): 26.8 nM
- CC50 (IGROV-ET; read-out: IGROV-ET LC50): 2680 nM
- IC (TGI) (IGROV-ET; read-out: IGROV-ET TGI): 62.7 nM
- GI50 (K-562; read-out: K562 GI50): 33.9 nM
- CC50 (K-562; read-out: K562 LC50): 2090 nM
- IC (TGI) (K-562; read-out: K562 TGI): 39.7 nM
- GI50 (LNCaP; read-out: LNCAP GI50): 3 nM
- CC50 (LNCaP; read-out: LNCAP LC50): 37.4 nM
- IC (TGI) (LNCaP; read-out: LNCAP TGI): 9 nM
- GI50 (LoVo-Dox; read-out: LOVO-DOX GI50): 368 nM
- CC50 (LoVo-Dox; read-out: LOVO-DOX LC50): 12700 nM
- IC (TGI) (LoVo-Dox; read-out: LOVO-DOX TGI): 975 nM
- GI50 (PANC-1; read-out: PANC-1 GI50): 27.4 nM
- CC50 (PANC-1; read-out: PANC-1 LC50): 2780 nM
- IC (TGI) (PANC-1; read-out: PANC-1 TGI): 92.7 nM
- GI50 (SK-BR-3; read-out: SK-BR3 GI50): 8.71 nM
- CC50 (SK-BR-3; read-out: SK-BR3 LC50): 284 nM
- IC (TGI) (SK-BR-3; read-out: SK-BR3 TGI): 37.4 nM
- GI50 (SK-MEL-28; read-out: MEL-28 GI50): 20.4 nM
- CC50 (SK-MEL-28; read-out: MEL-28 LC50): 100 nM
- IC (TGI) (SK-MEL-28; read-out: MEL-28 TGI): 45.3 nM

Compound: C=CCN1[C@@H]2c3c(cc(C)c(OC)c3O)C[C@H]1[C@H](C#N)N1C2[C@@H]2SC[C@]3(NCCc4cc(O)c(OC)cc43)C(=O)OC[C@H]1c1c3c(c(C)c(OC(=O)/C=C/c4ccccc4)c12)OCO3 (stereo partly drawn) [compound 49]
- GI50 (A-549; read-out: A549 GI50): 184 nM
- CC50 (A-549; read-out: A549 LC50): 1010 nM
- IC (TGI) (A-549; read-out: A549 TGI): 431 nM
- GI50 (HT-29; read-out: HT29 GI50): 194 nM
- CC50 (HT-29; read-out: HT29 LC50): 11300 nM
- IC (TGI) (HT-29; read-out: HT29 TGI): 588 nM
- GI50 (LoVo; read-out: LOVO GI50): 250 nM
- CC50 (LoVo; read-out: LOVO LC50): 890 nM
- IC (TGI) (LoVo; read-out: LOVO TGI): 471 nM
- GI50 (DU-145; read-out: DU145 GI50): 107 nM
- CC50 (DU-145; read-out: DU145 LC50): 11300 nM
- IC (TGI) (DU-145; read-out: DU145 TGI): 1250 nM
- GI50 (HeLa-APL; read-out: HELA-APL GI50): 182 nM
- CC50 (HeLa-APL; read-out: HELA-APL LC50): 701 nM
- IC (TGI) (HeLa-APL; read-out: HELA-APL TGI): 357 nM
- GI50 (HeLa; read-out: HELA GI50): 189 nM
- CC50 (HeLa; read-out: HELA LC50): 929 nM
- IC (TGI) (HeLa; read-out: HELA TGI): 418 nM
- GI50 (IGROV-1; read-out: IGROV GI50): 165 nM
- CC50 (IGROV-1; read-out: IGROV LC50): 1130 nM
- IC (TGI) (IGROV-1; read-out: IGROV TGI): 432 nM
- GI50 (IGROV-ET; read-out: IGROV-ET GI50): 280 nM
- CC50 (IGROV-ET; read-out: IGROV-ET LC50): 11300 nM
- IC (TGI) (IGROV-ET; read-out: IGROV-ET TGI): 616 nM
- GI50 (K-562; read-out: K562 GI50): 37.7 nM
- CC50 (K-562; read-out: K562 LC50): 5100 nM
- IC (TGI) (K-562; read-out: K562 TGI): 311 nM
- GI50 (LNCaP; read-out: LNCAP GI50): 40.5 nM
- CC50 (LNCaP; read-out: LNCAP LC50): 442 nM
- IC (TGI) (LNCaP; read-out: LNCAP TGI): 175 nM
- GI50 (LoVo-Dox; read-out: LOVO-DOX GI50): 672 nM
- CC50 (LoVo-Dox; read-out: LOVO-DOX LC50): 11300 nM
- IC (TGI) (LoVo-Dox; read-out: LOVO-DOX TGI): 11300 nM
- GI50 (PANC-1; read-out: PANC-1 GI50): 179 nM
- CC50 (PANC-1; read-out: PANC-1 LC50): 3920 nM
- IC (TGI) (PANC-1; read-out: PANC-1 TGI): 564 nM
- GI50 (SK-BR-3; read-out: SK-BR3 GI50): 49.6 nM
- CC50 (SK-BR-3; read-out: SK-BR3 LC50): 11300 nM
- IC (TGI) (SK-BR-3; read-out: SK-BR3 TGI): 1860 nM
- GI50 (SK-MEL-28; read-out: MEL-28 GI50): 181 nM
- CC50 (SK-MEL-28; read-out: MEL-28 LC50): 701 nM
- IC (TGI) (SK-MEL-28; read-out: MEL-28 TGI): 356 nM

Compound: CCCCCCCCCCCCCCCC(=O)NC1CS[C@@H]2c3c(OC(C)=O)c(C)c4c(c3[C@H](COC1=O)N1C2[C@@H]2N[C@@H](Cc3cc(C)c(OC)c(O)c32)[C@@H]1C#N)OCO4 (stereo partly drawn) [compound 32]
- GI50 (A-549; read-out: GI50 A549): 2380 nM
- CC50 (A-549; read-out: LC50 A549): 7700 nM
- IC (TGI) (A-549; read-out: TGI A549): 4290 nM
- GI50 (HT-29; read-out: GI50 HT29): 3480 nM
- CC50 (HT-29; read-out: LC50 HT29): 10700 nM
- IC (TGI) (HT-29; read-out: TGI HT29): 6100 nM
- GI50 (LoVo; read-out: GI50 LOVO): 1890 nM
- CC50 (LoVo; read-out: LC50 LOVO): 7390 nM
- IC (TGI) (LoVo; read-out: TGI LOVO): 3760 nM
- GI50 (DU-145; read-out: GI50 DU145): 2480 nM
- CC50 (DU-145; read-out: LC50 DU145): 9390 nM
- IC (TGI) (DU-145; read-out: TGI DU145): 4830 nM
- GI50 (HeLa-APL; read-out: GI50 HELA-APL): 33.9 nM
- CC50 (HeLa-APL; read-out: LC50 HELA-APL): 108 nM
- IC (TGI) (HeLa-APL; read-out: TGI HELA-APL): 60.5 nM
- GI50 (HeLa; read-out: GI50 HELA): 253 nM
- CC50 (HeLa; read-out: LC50 HELA): 689 nM
- IC (TGI) (HeLa; read-out: TGI HELA): 418 nM
- GI50 (IGROV-1; read-out: GI50 IGROV): 1970 nM
- CC50 (IGROV-1; read-out: LC50 IGROV): 7740 nM
- IC (TGI) (IGROV-1; read-out: TGI IGROV): 3910 nM
- GI50 (IGROV-ET; read-out: GI50 IGROV-ET): 2850 nM
- CC50 (IGROV-ET; read-out: LC50 IGROV-ET): 9670 nM
- IC (TGI) (IGROV-ET; read-out: TGI IGROV-ET): 5240 nM
- GI50 (K-562; read-out: GI50 K562): 694 nM
- CC50 (K-562; read-out: LC50 K562): 6810 nM
- IC (TGI) (K-562; read-out: TGI K562): 2200 nM
- GI50 (LNCaP; read-out: GI50 LNCAP): 1770 nM
- CC50 (LNCaP; read-out: LC50 LNCAP): 6410 nM
- IC (TGI) (LNCaP; read-out: TGI LNCAP): 3360 nM
- GI50 (LoVo-Dox; read-out: GI50 LOVO-DOX): 802 nM
- CC50 (LoVo-Dox; read-out: LC50 LOVO-DOX): 6760 nM
- IC (TGI) (LoVo-Dox; read-out: TGI LOVO-DOX): 2480 nM
- GI50 (PANC-1; read-out: GI50 PANC-1): 2560 nM
- CC50 (PANC-1; read-out: LC50 PANC-1): 8790 nM
- IC (TGI) (PANC-1; read-out: TGI PANC-1): 4750 nM
- GI50 (SK-BR-3; read-out: GI50 SK-BR3): 263 nM
- CC50 (SK-BR-3; read-out: LC50 SK-BR3): 7520 nM
- IC (TGI) (SK-BR-3; read-out: TGI SK-BR3): 1660 nM
- GI50 (SK-MEL-28; read-out: GI50 MEL-28): 2410 nM
- CC50 (SK-MEL-28; read-out: LC50 MEL-28): 7130 nM
- IC (TGI) (SK-MEL-28; read-out: TGI MEL-28): 4140 nM
